Measured values reported in patent US9233095B2, “Small molecule RNase inhibitors and methods of use” (University of Rochester, priority 2011, dated 2016).
≈ marks a conversion by molar mass, not a printed value. Where two headings read alike, the source gives them in different places.

What was measured:
[1] = system: S. aureus strain UAMS-1; assay: time-kill assay; format: cell-based
Procedure: (§1) With the exception of RN4220-derivatives, in vitro activities of RNPA1000 against bacteria were determined by the broth microdilution method according to the Clinical and Laboratory Standards Institute (CLSI) guidelines using cation adjusted Mueller-Hinton broth or MH broth supplemented with 5% lysed horse blood (for testing Streptotococcus spp.). Microtiter plates containing serial dilutions of RNPA1000 (0, 4, 8, 16, 32, 64, and 128 μg/ml) were inoculated with 10^5 colony forming units (CFU)/ml and incubated for 18 hr at 37° C. […] The MIC value for each S. aureus strain was determined to be the median score of replicate measurements (n=5). Wells containing concentrations of RNPA1000≧MIC were plated for minimal bactericidal measurement. Where possible, experiments with VRSA strains were performed in a laminar flow hood to minimize potential for equipment contamination. For RN4220 cells containing plasmid vector (pCN51), RnpA overproducing plasmid (pRNPA-S) or RnpA underproducing plasmid (pRNPA-A.S.) in vitro antimicrobial activity of RNPA1000 was performed by the microdilution method as described above, except that cells were grown in Tryptic Soy Broth medium supplemented with 2.5 μM CdCl2 and 0, 1, 2, 4, 8, 16, 32, 64, or 128 μg/ml RNPA1000. Time-kill assays were also performed to monitor the antimicrobial properties of RNPA1000 for S. aureus strain UAMS-1 in the absence and presence of 0.25, 0.5, 2, and 4 times the strain's MIC for oxacillin (1 μg/ml), rifampicin (0.5 μg/ml), vancomycin (2 μg/ml), or daptomycin (1 μg/ml). The indicated amount of RNPA1000 and/or commercial antibiotic were added to mid-exponential phase (2×10^8 cfu/ml) S. aureus strain UAMS-1 cells and incubated at 37° C. Aliquots were removed at 0, 2, 4, 8, and 24 hr post-antimicrobial challenge, serial diluted, and plated to enumerate resulting cfu/ml. All time-kill assays were repeated at least 3 times.

[2] = molecular target: T1, S. aureus RnpA (Staphylococcus aureus, UniProt P0A0H5); assay: gel-based RnpA-mediated spa mRNA degradation, inhibitory titration; format: biochemical; conditions: 1 pmol spa mRNA, 20 pmol RnpA, one hour at 37° C.; read-out: IC50 of RnpA-mediated RNA degradation
T1 construct: hexahistidine-tag (N); made in house; host or cells: E. coli BL21 (DE3)
Procedure: Specifically, members of the ActiProbe-25K and Natural Product libraries (29,940 compounds total; TimTec Inc.; Newark, Del.) were screened for small molecule inhibitors of S. aureus RnpA mediated total bacterial RNA degradation. All reactions (50 μl) were performed in 96-well format and contained 20 pmol RnpA, 200 ng S. aureus total RNA, and about 5 μM of each compound in 1× reaction buffer (2 mM NaCl, 2 mM MgCl2, 50 mM Tris-HCl, pH 6.0). Mixtures were incubated at 37° C. for 20 min at which time Quant-iT RiboGreen® (100 μl; Invitrogen) was added to quantify the amount of RNA substrate remaining. Percent enzyme inhibition was calculated as remaining substrate/starting substrate*100. For inhibitory titration assays, 1 pmol of spa mRNA was incubated with 20 pmol RnpA alone (positive control) or in the presence of increasing amounts (0, 25, 50, 100, 125, 150, 200, 250, and 500 μM) RNP1000 for one hour at 37° C. Following this, 20 μl of each reaction mixture were subjected to electrophoresis in a 1.2% formaldehyde-containing agarose gel and visualized by ethidium bromide staining.

[3] = system: biofilm-associated S. aureus strain UAMS-1; assay: in vitro catheter biofilm assay; format: cell-based
Procedure: To determine this, in vitro biofilm assays were performed as described in Weiss et al., Antimicrob Agents Chemother, 53: 2475-2482 (2009). Briefly, 1 cm segments of 14-gauge fluorinated ethylene propylene Introcan Safety Catheters (B. Braun, Bethlehem, Pa.) were coated with human plasma and placed in individual wells of a 12-well microtiter plate containing 2 ml biofilm medium and S. aureus strain UAMS-1 at a final OD600 nm of 0.05. Following overnight incubation at 37° C. catheters were removed, rinsed in phosphate buffered saline (PBS), and transferred to fresh biofilm medium containing 0, 5, 10, or 20 times the S. aureus MIC for RNPA1000. Catheters exposed to each dose (n=3) were recovered daily over a period of 3 days, with the medium being replaced each day. After each recovery time point catheters were rinsed in PBS and adherent bacteria were enumerated by sonication and plating. Analysis of variance (ANOVA) of logarithmically-transformed bacterial count data was used to evaluate the effect of RNPA1000 exposure.

[4] = system: E. coli; assay: CLSI broth microdilution MIC; format: cell-based, Escherichia coli
Excerpt: (§2) In some examples, compounds can be further assayed using the Mueller Hinton (MH) broth antibacterial assay as specified by the Clinical and Laboratory Standards Institute MIC broth microdilution protocol (see Methods for Dilution Antimicrobial Susceptibility Tests for Bacteria That Grow Aerobically; Approved Standard, In The Clinical and Laboratory Standards Institute (CLSI, formerly NCCLS), 7th ed., January 2006, 26 (2), M7-A7; see also Performance Standards for Antimicrobial Susceptibility Testing; Eighteenth Informational Supplement, In The Clinical and Laboratory Standards Institute (CLSI, formerly NCCLS), January 2008, 28 (1), M100-S18).
as §1

[5] = system: E. faecalis; assay: CLSI broth microdilution MIC; format: cell-based, Enterococcus faecalis
Excerpt: as §2, §1

[6] = combination time-kill, data not shown

## Cc1cc(/C=C(/C#N)C(=O)Nc2cccc(Br)c2)c(C)n1-c1ccc(C(=O)O)cc1 [RNPA1000]
[1]; 0.25-4 times the MIC, 0-24 hr
  mode of antimicrobial action in time kill assays: bacteriostatic
[1]; combination time-kill, 0.5 times the MIC of each
  effect on the potency of oxacillin: mildly increase the potency
[1]; [6]
  effect on the antimicrobial activity of daptomycin: does not affect the antimicrobial activities
  effect on the antimicrobial activity of rifampicin: does not affect the antimicrobial activities
  effect on the antimicrobial activity of vancomycin: does not affect the antimicrobial activities
[2]
  IC50: 100 to 125 µM
[3]; 5, 10 or 20× MIC, up to 3 days
  bacterial clearance: never achieved
[3]; 5× MIC for 24 hr
  decrease in bacterial burden: 3 log
[3]; up to 20× MIC, up to 3 days
  maximal reduction in biofilm-associated bacteria: 5 log
[4]
  effect on growth: did not affect
[4]; E. coli Isolate 2
  MIC: >64 µg/mL
[4]; E. coli Isolate 3
  MIC: >64 µg/mL
[4]; E. coli Isolate 4
  MIC: >64 µg/mL
[4]; E. coli Isolate 5
  MIC: >64 µg/mL
[4]; Escherichia coli, E. coli Isolate 1, read-out: MIC
  MIC: > 64 µg/mL
[5]
  antimicrobial activity in words: mild activity
[5]; E. faecalis Isolate 1
  MIC: 64 µg/mL (≈ 138 µM)
[5]; E. faecalis Isolate 3
  MIC: 64 µg/mL (≈ 138 µM)
[5]; E. faecalis Isolate 4
  MIC: 64 µg/mL (≈ 138 µM)
[5]; E. faecalis Isolate 5
  MIC: 64 µg/mL (≈ 138 µM)
[5]; Enterococcus faecalis, E. faecalis Isolate 2, read-out: MIC
  MIC: 64 µg/mL (≈ 138 µM)
